Results: patent US5750754A, “Heterocyclic compounds” (Zeneca Limited, priority 1993, dated 1998)
Counter-ions that a name gives are not always drawn.

Experiments:
[1] = molecular target: T1, purified human platelet fibrinogen receptor (GPIIb/IIIa) (Homo sapiens, UniProt P05106+P08514); experiment: Test (b): GPIIb/IIIa ELISA, inhibition of biotinylated fibrinogen binding; conditions: purified human platelet GPIIb/IIIa, ELISA; for IC50: read-out: Test (b): pIC50 (-log(IC50)), 50% inhibition of biotinylated fibrinogen binding to GPIIb/IIIa (converted)
T1 construct: is isolated from human platelet lysates; from tissue
In short: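 Inhibition of biotinylated fibrinogen ([…]) binding to immobilised human platelet fibrinogen receptor, purified by KYGRGDS peptide affinity chromatography, was measured after 2 h at 30 °C. Readout: streptavidin–biotin-HRP colour with TMB at […]; value expressed as pIC50.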

[2] = molecular target: T2, human, citrated, platelet-rich plasma (Homo sapiens, UniProt P05106+P08514); experiment: Test (a): inhibition of ADP stimulated platelet aggregation (Born); format: cell-based; conditions: ADP induced aggregation of human platelet-rich plasma; for Kb: read-out: Test (a): pA2 value indicating potency of platelet aggregation inhibition (converted)
T2 construct: aggregating human, citrated, platelet-rich plasma; endogenous in cells; host or cells: human platelets in citrated platelet-rich plasma
In short: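 pA2 calculated by comparing ADP EC50-type (50% response) values in presence and absence of compound, averaged across concentrations (generally 10-^5 M to 10-^10 M). Aggregation (Born) induced by ADP in citrated human platelet-rich plasma, giving dose-response curves.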

T1 sequence (P08514 32-887 limits assumed): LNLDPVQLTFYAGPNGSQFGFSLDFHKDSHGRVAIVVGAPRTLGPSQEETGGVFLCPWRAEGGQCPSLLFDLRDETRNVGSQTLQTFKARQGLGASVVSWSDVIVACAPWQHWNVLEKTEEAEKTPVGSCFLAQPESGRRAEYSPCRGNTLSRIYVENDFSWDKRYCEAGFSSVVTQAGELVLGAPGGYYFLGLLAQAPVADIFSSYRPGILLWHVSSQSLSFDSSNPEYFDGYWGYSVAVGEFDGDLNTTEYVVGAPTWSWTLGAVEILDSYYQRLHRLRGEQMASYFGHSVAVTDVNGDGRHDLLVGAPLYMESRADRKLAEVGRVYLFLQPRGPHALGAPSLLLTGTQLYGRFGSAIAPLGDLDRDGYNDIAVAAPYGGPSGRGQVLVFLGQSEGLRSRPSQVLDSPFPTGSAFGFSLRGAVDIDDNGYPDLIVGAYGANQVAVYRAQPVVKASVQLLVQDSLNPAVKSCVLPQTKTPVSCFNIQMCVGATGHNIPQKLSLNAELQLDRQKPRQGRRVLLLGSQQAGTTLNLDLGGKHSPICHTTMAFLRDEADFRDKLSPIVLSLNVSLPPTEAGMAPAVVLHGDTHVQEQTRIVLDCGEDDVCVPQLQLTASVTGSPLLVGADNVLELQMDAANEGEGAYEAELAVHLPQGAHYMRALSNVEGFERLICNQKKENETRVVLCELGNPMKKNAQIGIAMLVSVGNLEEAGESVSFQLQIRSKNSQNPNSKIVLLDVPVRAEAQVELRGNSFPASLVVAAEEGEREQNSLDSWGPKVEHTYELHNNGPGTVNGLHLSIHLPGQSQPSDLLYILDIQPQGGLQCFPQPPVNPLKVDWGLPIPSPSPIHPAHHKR
T1 sequence (P08514 891-1039 limits assumed): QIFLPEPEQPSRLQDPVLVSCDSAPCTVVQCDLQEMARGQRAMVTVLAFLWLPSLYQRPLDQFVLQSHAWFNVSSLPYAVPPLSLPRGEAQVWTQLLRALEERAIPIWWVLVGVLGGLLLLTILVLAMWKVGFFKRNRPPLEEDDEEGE
T1 sequence (P05106 27-788): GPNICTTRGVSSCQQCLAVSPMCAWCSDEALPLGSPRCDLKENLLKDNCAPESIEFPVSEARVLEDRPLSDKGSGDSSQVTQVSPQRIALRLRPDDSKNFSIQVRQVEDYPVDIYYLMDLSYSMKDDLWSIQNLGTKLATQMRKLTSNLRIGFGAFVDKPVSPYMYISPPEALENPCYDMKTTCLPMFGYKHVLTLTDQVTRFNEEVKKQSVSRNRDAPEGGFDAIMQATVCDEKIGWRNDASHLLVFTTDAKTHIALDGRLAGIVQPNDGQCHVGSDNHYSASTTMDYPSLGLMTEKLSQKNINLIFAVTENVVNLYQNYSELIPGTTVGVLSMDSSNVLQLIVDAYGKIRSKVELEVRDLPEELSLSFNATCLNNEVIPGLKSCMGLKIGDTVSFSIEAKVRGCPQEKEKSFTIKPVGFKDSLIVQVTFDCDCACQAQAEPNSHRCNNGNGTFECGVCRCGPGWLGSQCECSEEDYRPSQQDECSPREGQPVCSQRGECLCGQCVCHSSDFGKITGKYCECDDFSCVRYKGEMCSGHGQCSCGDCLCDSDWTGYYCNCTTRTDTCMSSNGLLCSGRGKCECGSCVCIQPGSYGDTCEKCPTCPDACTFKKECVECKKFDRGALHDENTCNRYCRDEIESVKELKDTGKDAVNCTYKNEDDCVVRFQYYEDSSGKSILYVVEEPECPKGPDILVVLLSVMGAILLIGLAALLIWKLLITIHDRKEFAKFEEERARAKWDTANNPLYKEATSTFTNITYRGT
T2 sequence (P08514 32-887 limits assumed): as the sequence (P08514 32-887 limits assumed) above
T2 sequence (P08514 891-1039 limits assumed): as the sequence (P08514 891-1039 limits assumed) above
T2 sequence (P05106 27-788): as the sequence (P05106 27-788) above

Row | Structure (SMILES) | IC50 [1] [µM] | Kb [2] [µM] | Test (b): pIC50 (-log(IC50)), 50% inhibition of biotinylated fibrinogen binding to GPIIb/IIIa [1] | Test (a): pA2 value indicating potency of platelet aggregation inhibition [2]
1 | CCCCS(=O)(=O)NC(CC1CCN(C(=O)CN2CCN(c3ccncc3)CC2)CC1)C(=O)OCC (racemic) [Example 110, Ethyl 2RS-(n-butylsulphonylamino)-3-[1-[2-[4-(4-pyridyl)piperazin-1yl]-acetyl]piperidin-4-yl]propanoate] | > 100 | 6.31 |  | 
2 | CCOC(=O)CCCOc1ccc(N2CCN(c3ccncc3)CC2)cc1 [Example 50, Ethyl 4-[4-[4-(4-pyridyl)piperazin-1-yl]phenoxy]butyrate] | > 100 | 0.794 to 1 |  | 
3 | O=C(O)CC(NC(=O)c1cccc(CN2CCN(c3ccncc3)CC2)c1)c1ccccc1 (stereo not drawn) [Example 55, 3-[3-[4-(4-Pyridyl)piperazin-1-ylmethyl]]benzamido-3-phenylpropionic acid] | 15.8 | 31.6 |  | 
4 | CCCCS(=O)(=O)N[C@@H](Cc1ccc(OC2CCN(c3ccncc3)CC2)cc1)C(=O)OC [Example 37, Methyl 2-S-(n-butylsulphonylamino)-3-[4-[1-(4-pyridyl)piperidin-4-yl]oxyphenyl]propionate] | 0.2 | 2.51 |  | 
5 | COC(=O)C(CCOc1ccc(N2CCN(c3ccncc3)CC2)cc1)NC(=O)OC(C)(C)C (racemic) [Example 211, RS Methyl 2-t-butoxycarbonylamino-4-[4-[4-(4-pyridyl)piperazine-1-yl]phenoxy]butyrat] | 0.158 | 1.58 |  | 
6 | CCOC(=O)C=CCOc1ccc(N2CCN(c3ccncc3)CC2)cc1 [Example 54, Ethyl 4-[4-(4-pyridyl)piperazin-1-yl]phenoxycrotonate] | > 100 | 15.8 |  | 
7 | O=C(N[C@@H](Cc1ccc(OCCC2CCN(c3ccncc3)CC2)cc1)C(=O)O)OCc1ccccc1 [Example 94, 2-S-(Benzyloxycarbonylamino)-3-[4-[2-[1-(4-pyridyl)piperidin-4-yl]ethoxy]phenyl]propionic acid] | 0.00251 | 0.316 |  | 
8 | COC(=O)COc1ccc(C(=O)CN2CCN(c3ccnc4c3CCCC4)CC2)cc1 [Example 45, Methyl 4-[2-[4-(5,6,7,8-tetrahydro-4-quinolinyl)piperazin-1-yl]-acetyl]phenoxyacetate] | 0.794 | 3.98 |  | 
9 | O=C(O)C1CCN(C(=O)CN2CCN(c3ccncc3)CC2)CC1 [Example 28, 1-[2-[4-(4-Pyridyl)piperazin-1-yl]acetyl]piperidin-4-carboxylic acid] | 2 | 20 |  | 
10 | COC(=O)[C@H]1CC[C@H](Oc2ccc(N3CCN(c4ccncc4)CC3)cc2)CC1 [Example 230, Trans-methyl-4-[4-[4-(4-pyridyl)piperazin-1-yl]phenoxy]cyclohexyl carboxylate] | 5.01 | 10 |  | 
11 | O=C(O)Cc1ccc(NC(=O)C2CCN(c3ccncc3)CC2)cc1 [Example 169] | 10 | 39.8 |  | 
12 | COC(=O)COc1ccc(C(=O)C(C)N2CCN(c3ccncc3)CC2)cc1OCC(=O)OC (stereo not drawn) [Example 78] | 0.251 | 0.158 |  | 
13 | COC(=O)CCc1ccc(OCC2CCN(c3ccncc3)CC2)cc1 [Example 161, Methyl 3-[4-[1-(4-pyridyl)piperidin-4-yl]methoxyphenyl]propionate] | 50.1 | 12.6 |  | 
14 | O=C(O)CCc1ccc(OCC2CCN(c3ccncc3)CC2)cc1 [Example 162, 3-[4-[1-(4-Pyridyl)piperidin-4-yl]methoxyphenyl]propionic acid] | 0.631 | 20 |  | 
15 | CC(C)(C)OC(=O)COC1CCN(C(=O)CN2CCN(c3ccncc3)CC2)CC1 [Example 106] | 39.8 | 15.8 |  | 
16 | Cc1ccc(S(=O)(=O)NCCc2ccc(C(=O)CN3CCN(c4ccncc4)CC3)cc2)cc1 [Example 23, N-[2-[4-[2-[4-(4-Pyridyl)piperazin-1-yl]acetyl]phenyl]ethyl]-4-methylphenylsulphonamide] | 6.31 to 31.6 | 1 |  | 

The remaining lines, values ahead:

Row | IC50 [1] [µM] | Kb [2] [µM] | Test (b): pIC50 (-log(IC50)), 50% inhibition of biotinylated fibrinogen binding to GPIIb/IIIa [1] | Test (a): pA2 value indicating potency of platelet aggregation inhibition [2] | Structure (SMILES)
17 | 39.8 | 2 |  |  | COC(=O)CCc1ccc(C(=O)CN2CCN(c3ccncc3)CC2)cc1 [Example 11, Methyl 3-[4-[2-[4-(4-pyridyl)piperazin-1-yl]acetyl]phenyl]propionate]
18 | 25.1 | 15.8 |  |  | O=C(O)COc1cc(OCC(=O)O)cc(C(=O)CN2CCN(c3ccncc3)CC2)c1 [Example 134, Disodium 2,2'-[5-[2-[4-(4-pyridyl)piperazin-1-yl]acetyl]phenylene-1,3-dioxy]diacetate]
19 | 50.1 | 12.6 |  |  | COC(=O)CSc1ccc(C(=O)CN2CCN(c3ccncc3)CC2)cc1 [Example 9, Methyl 4-[2-[4-(4-pyridyl)piperazin-1-yl]acetyl]phenylthioacetate]
20 | 6.31 | 100 |  |  | O=C(O)CCCCN1CCN(c2ccncc2)CC1 [Example 196, 5-[(4-Pyridyl)piperazin-1-yl]pentanoic acid, dihydrochloride salt]
21 | 0.1 | 2.51 |  |  | O=C(O)CCCOc1cccc(N2CCN(c3ccncc3)CC2)c1 [Example 227, 3-[4-(4-Pyridyl)piperazin-1-yl]phenoxybutyric acid]
22 | 31.6 | 2 |  |  | COC(=O)COc1cc(OCC(=O)OC)cc(C(=O)CN2CCN(c3ccncc3)CC2)c1 [Example 133, Dimethyl 2,2'-[5-[2-[4-(4-pyridyl)piperazin-1-yl]acetyl]phenylene-1,3-dioxy]diacetate]
23 | 3.98 | 0.251 |  |  | CC(C)(C)COC(=O)COc1ccc(C(=O)CN2CCN(c3ccncc3)CC2)cc1 [Example 139, Neopentyl 4-[2-[4-(4-pyridyl)piperazin-1-yl]acetyl]phenoxyacetate]
24 | 0.00316 | 0.00251 |  |  | CCCCS(=O)(=O)NC(Cc1ccc(C(=O)CN2CCN(c3ccncc3)CC2)cc1)C(=O)O (racemic) [Example 67, 2-RS-(n-Butylsulphonylamino)-3-[4-[2-[4-(4-pyridyl)piperazine-1-yl]acetyl]phenyl]propionic acid]
25 | 31.6 | 2 |  |  | CCCCS(=O)(=O)NCCc1ccc(C(=O)CN2CCN(c3ccncc3)CC2)cc1 [Example 24, N-[2-[4-[2-[4-(4-Pyridyl)piperazin-1-yl]acetyl]phenyl]ethyl]-1-butanesulphonamide]
26 | 0.02 | 0.794 |  |  | O=C(O)CCNC(=O)CCCCN1CCN(c2ccncc2)CC1 [Example 198, 3-[5-[4-(4-Pyridyl)piperazine-1-yl]pentanoyl]aminopropionic acid]
27 | > 100 | 31.6 |  |  | COC(=O)COc1cccc(C(=O)CN2CCN(c3ccncc3)CC2)c1 [Example 119]
28 | 5.01 | 5.01 |  |  | COCCNC(=O)COc1ccc(C(=O)CN2CCN(c3ccncc3)CC2)cc1 [Example 144, 2-[4-[2-[4-(4-Pyridyl)piperazin-1-yl]acetyl]phenoxy]-N-(2-methoxymethyl)-acetamide]
29 |  |  | 5.5 | 5.2 | O=C(O)CCC(CC1CCN(C(=O)CN2CCN(c3ccncc3)CC2)CC1)C(=O)O (stereo not drawn) [Example 112]
30 | 39.8 | 12.6 |  |  | O=C(O)COc1ccc2nccc(N3CCN(c4ccncc4)CC3)c2c1 [Example 71, 4-[[4-(4-Pyridyl)piperazin-1-yl]quinolin-6-yl]oxyacetic acid]
